Patent US9814739B2, “2′-ethynyl nucleoside derivatives for treatment of viral infections” (priority 2012, dated 2017)
Like-named read-outs stand apart in the source and are kept apart here.

What was measured:
[1] = system: Replicon cells, expressing the GT1b HCV luciferase replicon
[2] = system: GT1b HCV luciferase replicon; assay: HCV replicon antiviral EC50 assay; format: cell-based, Hepatitis C virus
[3] = 4 day CCK-8 cytotoxicity assay using THP-1 cells; format: cell-based; conditions: human, read-out: Dengue CC50 (THP-1)
Method: 3) Protocols for Automated 4 Days CCK8 (Dojindo) Cytotoxicity Assay in HepG2 and THP-1 Cells • 1. 25 μL of HepG2 suspension containing 1.6×10^4 cells/ml (400 cells/well) or 25 μL of THP-1 suspension containing 8×10^4 cells/ml (2000 cells/well) was dispensed into a clear 384-well plate by GNF dispenser 2B vertical-head. • 2. The plate was pre-incubated for 24 h in the GNF incubator (humidified, 37° C., 5% CO2). • 3. Serial-diluted compound were directly transferred into the culture media in the plate (200× dilution). • 4. Plates were incubated for 96 hours in the GNF incubator. • 5. CCK-8 was thawed on the bench-top, and was pre-diluted with media (2.5× dilutions). • 6. 35 μL of 2.5× diluted CCK8 was added to each well of the plate by GNF dispenser 1C angled-head. • 7. The plates were incubated for 3 hours in the incubator. • 8. The absorbance at 450 nm was measured by Envision. Dengue Assay on Cryopreserved PBMC Cells
THP-1 cells grown in suspension were counted and diluted to 8×10^4 cells/ml in RPMI-1640 media supplemented with 10% fetal bovine serum and 1% penicillin/streptomycin. 25 ul of the THP-1 containing media consisting of 2000 cells were dispensed in 384-well tissue culture plate and pre-incubated at room temperature for 30 minutes, followed by 37° C., 5% CO2 overnight in the humidified incubator. On the next day, serial-diluted compound plates were prepared and 125 nl of compounds at various concentrations were then dispensed into the tissue culture well (200× dilution). The plates were then transferred to 37° C., 5% CO2 humidified incubator for additional 96 hours. Cytotoxicity was measured by CCK-8 assay. Briefly, CCK-8 was thawed on bench top and diluted 2.5× with the growth media. 35 ul of the pre-diluted CCK-8 was then introduced into each well and the plates were then further incubated in 37° C., 5% CO2 humidified incubator for 3 hours. The absorbance was read by Envision at 450 nm. Dose response curves were plotted from the mean absorbance (n=2) versus the log of the concentration of test compounds. The EC50 is calculated by nonlinear regression analysis. A positive control (puromycin) was used to ensure the quality of the data.

in vitro = conditions: HCV GT1b CC50 (uM)
Dengue virus = assay: Dengue assay on cryopreserved PBMC cells (plaque reduction readout on BHK cells); format: cell-based; conditions: Dengue virus, PBMC, 48 h, human PBMC cells
Method: Cryopreserved human PBMC cells were purchased from approved vendors. It was then thawed according to manufacturer's instructions and suspended in RPMI medium supplemented with 1% penicillin/streptomycin solution and 10% Fetal Calf serum. The cells were then counted and viability checked (viability should be at least 70%). After centrifuging and removing the media, the cells were diluted to 1×10^7 cells/mL in RPMI medium supplemented with 1% penicillin/streptomycin. 50 μl of the cells were then dispensed into 96-well tissue culture plate constituting 5×10^5 cells/well. Next, virus with humanized 4G2 mixture was prepared for infection. Briefly, virus (2×10^7 pfu/ml) was mixed with humanized 4G2 antibody with the final antibody concentration of 0.38 μg/ml and incubated for 30 minutes at 4° C. to assist virus/antibody complex formation. The virus-antibody complex was then added to the PBMC at multiplicity of infection (M.O.I) of 0.5. The resulting media was then and further incubated the plates at 37° C. in the humidified incubator for infection to take place. Serial diluted compounds were then added and finally media was added such that the final media volume was 200 μl with 2% Fetal Calf Serum. The plates were then incubated at 37° C., 5% CO2 for another 48 hours. The extent of the infection and compound inhibition was measured by plaque reduction assay using BHK cells. Briefly, BHK cells grown in 24-well tissue culture were subjected to supernatants derived from infection containing serial diluted compounds. After additional 4 days, the monolayer of BHK cells were fixed, stained with crystal violet stain and plaques counted. Dose response curves were plotted from the mean absorbance (n=3) versus the log of the concentration of test compounds. The EC50 is calculated by nonlinear regression analysis. A positive control (7-deaza-2′-C-acetylene-adenosine) was used to ensure the quality of the data.

[4] = Hepatitis C virus, GT1B, 72 h, read-out: HCV GT1b EC50 (uM)

SMILES | CC50 [1] [nM] | EC50 ([2]; read-out: HCV GT1b EC50) [µM] | CC50 at 96 h [3] [nM] | EC50 [2, 4] [µM] | CC50 (in vitro) [µM] | EC50 (Dengue virus) [nM]
C#C[C@@]1(O)[C@H](O)[C@@H](COP(=O)(N[C@@H](C)C(=O)OCOC(C)=O)Oc2ccccc2)O[C@H]1n1ccc(=O)[nH]c1=O (single isomer, unassigned) [1.17 (peak 1)] | > 25000 | 6.8 | – | – | – | –
C#C[C@@]1(O)[C@H](O)[C@@H](COP(=O)(NCCOC(=O)c2ccccc2)Oc2ccccc2)O[C@H]1n1ccc(=O)[nH]c1=O (single isomer, unassigned) [1.18 (peak 1)] | > 25000 | 0.08 | – | – | – | –
C#C[C@@]1(O)[C@H](O)[C@@H](COP(=O)(N[C@@H](CC(C)C)C(=O)OC(C)C)Oc2ccccc2)O[C@H]1n1ccc(=O)[nH]c1=O (single isomer, unassigned) [1.23 (peak 1)] | > 25000 | 2.72 | – | – | – | –
C#C[C@@]1(O)[C@H](O)[C@@H](COP(=O)(N[C@@H](CCC)C(=O)OC(C)C)Oc2ccccc2)O[C@H]1n1ccc(=O)[nH]c1=O (single isomer, unassigned) [1.24 (peak 1)] | > 25000 | 0.89 | – | – | – | –
C#C[C@@]1(O)[C@H](O)[C@@H](COP(=O)(N[C@@H](C)C(=O)OC(C)C)Oc2ccccc2)O[C@H]1n1ccc(OC)nc1=O (single isomer, unassigned) [1.28 (peak 1)] | > 25000 | > 100 | – | – | – | –
C#C[C@@]1(O)[C@H](O)[C@@H](COP(=O)(N[C@@H](C)C(=O)OC(C)C)Oc2ccccc2)O[C@H]1n1ccc(N)nc1=O (single isomer, unassigned) [1.30 (peak 1)] | > 25000 | 44.9 | – | – | – | –
C#C[C@@]1(O)[C@H](O)[C@@H](COP(=O)(N[C@@H](C)C(=O)OC2CCCC2)Oc2ccccc2)O[C@H]1n1ccc(=O)[nH]c1=O (single isomer, unassigned) [1.31 (peak 1)] | > 25000 | 0.024 | – | – | – | –
C#C[C@@]1(O)[C@H](O)[C@@H](COP(=O)(N[C@@H](C)C(=O)OCC(C)(C)OC)Oc2ccccc2)O[C@H]1n1ccc(=O)[nH]c1=O (single isomer, unassigned) [1.32 (peak 1)] | > 25000 | 0.53 | – | – | – | –
C#C[C@@]1(O)[C@H](O)[C@@H](COP(=O)(N[C@@H](C)C(=O)OCC(C)(C)C)Oc2ccccc2)O[C@H]1n1ccc(=O)[nH]c1=O (single isomer, unassigned) [1.33 (peak 1)] | 19700 | 0.081 | – | – | – | –
C#C[C@@]1(O)[C@H](O)[C@@H](COP(=O)(N[C@@H](C)C(=O)OC(CCC)CCC)Oc2ccccc2)O[C@H]1n1ccc(=O)[nH]c1=O (single isomer, unassigned) [1.34 (peak 1)] | > 25000 | 0.301 | – | – | – | –
C#C[C@@]1(O)[C@H](O)[C@@H](COP(=O)(N[C@@H](C)C(=O)OC)Oc2ccccc2)O[C@H]1n1ccc(=O)[nH]c1=O (single isomer, unassigned) [1.35 (peak 1)] | > 25000 | 0.294 | – | – | – | –
C#C[C@@]1(O)[C@H](O)[C@@H](COP(=O)(N[C@@H](C)C(=O)OCC)Oc2ccccc2)O[C@H]1n1ccc(=O)[nH]c1=O (single isomer, unassigned) [1.36 (peak 1)] | > 25000 | 0.103 | – | – | – | –
C#C[C@@]1(O)[C@H](O)[C@@H](COP(=O)(NC(C)(C)C(=O)OCC)Oc2ccccc2)O[C@H]1n1ccc(=O)[nH]c1=O (single isomer, unassigned) [1.37 (peak 1)] | > 25000 | 0.367 | – | – | – | –
C#C[C@@]1(O)[C@H](O)[C@@H](COP(=O)(N[C@@H](CC)C(=O)OC(C)C)Oc2ccccc2)O[C@H]1n1ccc(=O)[nH]c1=O (single isomer, unassigned) [1.38 (peak 1)] | > 25000 | 0.37 | – | – | – | –
C#C[C@@]1(O)[C@H](O)[C@@H](COP(=O)(NC(C)(C)C(=O)OC(C)C)Oc2ccccc2)O[C@H]1n1ccc(=O)[nH]c1=O (single isomer, unassigned) [1.39 (peak 1)] | > 25000 | 1.5 | – | – | – | –
CC#C[C@@]1(O)[C@H](O)[C@@H](COP(=O)(N[C@@H](C)C(=O)OC(C)C)Oc2ccccc2)O[C@H]1n1ccc(=O)[nH]c1=O (stereo partly drawn) [Example 1.1, (2S)-isopropyl 2-(((((2R,3R,4R,5R)-5-(2,4-dioxo-3,4-dihydropyrimidin-1(2H)-yl)-3,4-dihydroxy-4-(prop-1-yn-1-yl)tetrahydrofuran-2-yl)methoxy)(phenoxy)phosphoryl)amino)propanoate] | – | – | 48000 | 0.243 | > 25 | 970
C#C[C@@]1(O)[C@H](O)[C@@H](COP(=O)(N[C@@H](C)C(=O)O[C@H](C)CC)Oc2ccc(Cl)cc2)O[C@H]1n1ccc(=O)[nH]c1=O (stereo partly drawn) [Example 1.3, (2S)-(R)-sec-butyl 2-(((4-chlorophenoxy)(((2R,3R,4R,5R)-5-(2,4-dioxo-3,4-dihydropyrimidin-1(2H)-yl)-4-ethynyl-3,4-dihydroxytetrahydrofuran-2-yl)methoxy)phosphoryl)amino)propanoate] | – | – | 16000 | 0.095 | > 25 | 60
C#C[C@@]1(O)[C@H](O)[C@@H](COP(=O)(N[C@@H](C)C(=O)OC(CC)CC)Oc2ccc(Cl)cc2)O[C@H]1n1ccc(=O)[nH]c1=O (stereo partly drawn) [Example 1.4, (2S)-pentan-3-yl 2-(((4-chlorophenoxy)(((2R,3R,4R,5R)-5-(2,4-dioxo-3,4-dihydropyrimidin-1(2H)-yl)-4-ethynyl-3,4-dihydroxytetrahydrofuran-2-yl)methoxy)phosphoryl)amino)propanoate] | – | – | > 50000 | 0.087 | > 25 | 60
C#C[C@@]1(O)[C@H](O)[C@@H](COP(=O)(N[C@@H](C)C(=O)OCc2ccccc2)Oc2ccc(Cl)cc2)O[C@H]1n1ccc(=O)[nH]c1=O (stereo partly drawn) [Example 1.5, (2S)-benzyl 2-(((4-chlorophenoxy)(((2R,3R,4R,5R)-5-(2,4-dioxo-3,4-dihydropyrimidin-1(2H)-yl)-4-ethynyl-3,4-dihydroxytetrahydrofuran-2-yl)methoxy)phosphoryl)amino)propanoate] | – | – | 8300 | 0.131 | > 25 | 60
C#C[C@@]1(O)[C@H](O)[C@@H](COP(=O)(NCC(=O)OC(C)C)Oc2ccc(Cl)cc2)O[C@H]1n1ccc(=O)[nH]c1=O (stereo partly drawn) [Example 1.6, isopropyl 2-(((4-chlorophenoxy)(((2R,3R,4R,5R)-5-(2,4-dioxo-3,4-dihydropyrimidin-1(2H)-yl)-4-ethynyl-3,4-dihydroxytetrahydrofuran-2-yl)methoxy)phosphoryl)amino)acetate] | – | – | > 50000 | 0.152 | > 25 | 170
C#C[C@@]1(O)[C@H](O)[C@@H](COP(=O)(N[C@@H](C)C(=O)OC2CCCCC2)Oc2ccc(Cl)cc2)O[C@H]1n1ccc(=O)[nH]c1=O (stereo partly drawn) [Example 1.7, (2S)-cyclohexyl 2-(((4-chlorophenoxy)(((2R,3R,4R,5R)-5-(2,4-dioxo-3,4-dihydropyrimidin-1(2H)-yl)-4-ethynyl-3,4-dihydroxytetrahydrofuran-2-yl)methoxy)phosphoryl)amino)propanoate] | – | – | 13000 | 0.087 | > 25 | 170
